In PubChem BioAssay (NCI) one finds GI50 and TGI data, which are given here for 10 compounds.

Several values for one entry are separate records, joined by “and”; a condition that tells them apart may be missing. Identical values can stand only once.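 A five-concentration, 48-hour dose response in 96-well plates underlies each endpoint, interpolated linearly between surrounding concentrations. GI50 = concentration required for 50% inhibition of growth. TGI denotes the concentration required for complete inhibition of growth.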

Among the test systems are EKVX NSCLC; MOLT-4 leukemia; OVCAR-8 ovarian; A498 renal; MALME-3M melanoma; SF-539 CNS; SW-620 colon; SNB-19 CNS; ACHN renal; HCT-116 colon.
Common to all, as to assay: DTP human tumour cell line panel, 48 h

In general, GI50 refers to the concentration giving 50% growth inhibition. One may read the TGI as the concentration at which net growth stops. On to `COc1ccc(-c2nc(C(=O)c3ccccc3)n(CC(=O)c3ccccc3)c2-c2ccc(OC)cc2)cc1`, for which the GI50 in the experiment with EKVX NSCLC, in the experiment on MOLT-4 leukemia, in the experiment with OVCAR-8 ovarian, with A498 renal, with MALME-3M melanoma and in the experiment with SF-539 CNS was above 100 µM each time. Further, the GI50 with SW-620 colon, in the experiment on SNB-19 CNS, with ACHN renal and in the experiment on HCT-116 colon was above 100 µM each time. The TGI in the experiment on EKVX NSCLC, in the experiment with MOLT-4 leukemia, in the experiment with OVCAR-8 ovarian, in the experiment with A498 renal, in the experiment on MALME-3M melanoma and in the experiment on SF-539 CNS was above 100 µM in each case. In addition, the TGI with SW-620 colon, in the experiment with SNB-19 CNS, in the experiment on ACHN renal and with HCT-116 colon was above 100 µM throughout.
As to `COc1cc(Nc2ncc(F)c(Nc3ccc4c(n3)NC(=O)C(C)(C)O4)n2)cc(OC)c1OC`, the GI50 in the experiment with EKVX NSCLC is 4.3 µM; with MOLT-4 leukemia, 3.38 µM and 6.7 µM; in the experiment with OVCAR-8 ovarian it was above 100 µM; with A498 renal, 0.148 µM and 0.352 µM; in the experiment with MALME-3M melanoma, above 100 µM; in the experiment on SF-539 CNS, 0.916 µM. Further, the GI50 in the experiment on SW-620 colon is above 10 µM; in the experiment on SNB-19 CNS, above 100 µM; with ACHN renal, 0.791 µM and 1.36 µM; in the experiment with HCT-116 colon, above 100 µM. Besides, the TGI in the experiment with EKVX NSCLC was above 10 µM; in the experiment on MOLT-4 leukemia it was above 100 µM; in the experiment with OVCAR-8 ovarian, above 100 µM; in the experiment on A498 renal, 0.547 µM and 2.15 µM; in the experiment on MALME-3M melanoma, above 100 µM; with SF-539 CNS, 9.38 µM. For the same compound, the TGI was above 10 µM with SW-620 colon, above 100 µM with SNB-19 CNS, above 100 µM with ACHN renal and above 100 µM in the experiment with HCT-116 colon.
As to `COC1=CC23CCCN2CCc2cc4c(cc2C3C1O)OCO4` (stereo not given), the TGI in the experiment with EKVX NSCLC, with MOLT-4 leukemia, with OVCAR-8 ovarian, with A498 renal, with MALME-3M melanoma and in the experiment on SF-539 CNS was above 100 µM in each case. Moreover, the concentration for total growth inhibition (TGI) was above 100 µM with SW-620 colon, 67.8 µM in the experiment with SNB-19 CNS, 60.1 µM in the experiment on ACHN renal and above 100 µM in the experiment with HCT-116 colon.
Regarding `CC(=O)O[C@H]1CCC2[C@@H]3CCC4=C(O)C(=O)C(C#N)C[C@]4(C)C3CC[C@@]21C` (stereo not given in full), the total growth inhibition concentration (TGI) in the experiment on EKVX NSCLC is above 100 µM; with MOLT-4 leukemia, above 100 µM; in the experiment with OVCAR-8 ovarian, above 100 µM; in the experiment on A498 renal, 0.891 µM; with MALME-3M melanoma, above 100 µM; in the experiment with SF-539 CNS it was above 100 µM. For the same compound, the concentration for total growth inhibition (TGI) with SW-620 colon, in the experiment on SNB-19 CNS, with ACHN renal and with HCT-116 colon was above 100 µM in each case.
Turning to `N#CC(C#N)N=Nc1ccc(Br)cc1`, the GI50 in the experiment with EKVX NSCLC is 6 µM; with MOLT-4 leukemia, 2.72 µM; in the experiment with OVCAR-8 ovarian it was 3.67 µM; in the experiment on A498 renal, 13.3 µM; in the experiment on MALME-3M melanoma, 1.35 µM; with SF-539 CNS, 3.57 µM. Also, the GI50 was 3.01 µM with SW-620 colon, 27.5 µM in the experiment on SNB-19 CNS, 1.99 µM with ACHN renal and 2.44 µM with HCT-116 colon. Moreover, the total growth inhibition concentration (TGI) in the experiment with EKVX NSCLC is above 83 µM; with MOLT-4 leukemia it was above 66.2 µM; with OVCAR-8 ovarian, 33.4 µM; with A498 renal it was 46.1 µM; with MALME-3M melanoma it was 10.4 µM; in the experiment with SF-539 CNS it was 18.3 µM. Besides, the TGI in the experiment with SW-620 colon was 15.8 µM; in the experiment with SNB-19 CNS, above 100 µM; in the experiment with ACHN renal, 7.89 µM; with HCT-116 colon it was 9.44 µM.
On to `CN(CC#N)C1CCCC[C@H]1O` (stereo not given in full), for which the TGI in the experiment on EKVX NSCLC, in the experiment on MOLT-4 leukemia, in the experiment on OVCAR-8 ovarian, in the experiment on A498 renal, in the experiment with MALME-3M melanoma and in the experiment on SF-539 CNS was above 100 µM each time. The total growth inhibition concentration (TGI) in the experiment with SW-620 colon, in the experiment with SNB-19 CNS, in the experiment on ACHN renal and with HCT-116 colon was above 100 µM in each case.
For `C[C@@H](CN1CC(=O)NC(=O)C1)N1CC(=O)NC(=O)C1`, the TGI with EKVX NSCLC was 546 µM; in the experiment with MOLT-4 leukemia, 821 µM; in the experiment on OVCAR-8 ovarian, 747 µM; with A498 renal, 698 µM; in the experiment on MALME-3M melanoma, 1100 µM; with SF-539 CNS, 1060 µM. Besides, the TGI in the experiment on SW-620 colon was 1030 µM; with SNB-19 CNS, 1370 µM; in the experiment on ACHN renal, 753 µM; with HCT-116 colon, 750 µM.
Consider `Cc1ccc(C2NC(=O)c3ccccc3N2)s1` (stereo not given), for which the TGI in the experiment on EKVX NSCLC is above 100 µM; in the experiment on MOLT-4 leukemia, above 100 µM; in the experiment on OVCAR-8 ovarian, 54.2 µM; with A498 renal it was above 100 µM; in the experiment on MALME-3M melanoma, above 100 µM; in the experiment on SF-539 CNS, 14.4 µM. Also, the concentration for total growth inhibition (TGI) with SW-620 colon, with SNB-19 CNS, in the experiment with ACHN renal and in the experiment with HCT-116 colon was above 100 µM each time.
For `Cc1ccccc1C(=O)Oc1ccc(O)cc1`, the concentration for total growth inhibition (TGI) in the experiment on EKVX NSCLC, with MOLT-4 leukemia, in the experiment with OVCAR-8 ovarian, with A498 renal, in the experiment with MALME-3M melanoma and in the experiment on SF-539 CNS was above 100 µM each time. Moreover, the TGI in the experiment with SW-620 colon, in the experiment with SNB-19 CNS, in the experiment on ACHN renal and with HCT-116 colon was above 100 µM each time.
In the case of `O=C(CC1(O)C(=O)Nc2ccccc21)c1ccco1` (stereo not given), the concentration for total growth inhibition (TGI) in the experiment with EKVX NSCLC, in the experiment with MOLT-4 leukemia, with OVCAR-8 ovarian, in the experiment on A498 renal, in the experiment with MALME-3M melanoma and in the experiment with SF-539 CNS was above 100 µM in each case. Moreover, the TGI in the experiment with SW-620 colon, with SNB-19 CNS, in the experiment on ACHN renal and with HCT-116 colon was above 100 µM each time.
